From PubChem BioAssay (NCI)
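Exposure lasted 48 hours, with cells grown in 96-well plates and compounds tested at five concentrations. The concentration for full growth arrest is given as TGI.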

Key:
Assay in all cases: NCI tumour cell line growth inhibition, 48 h
786-0 renal = test system: 786-0 renal
ACHN renal = test system: ACHN renal
DU-145 prostate = test system: DU-145 prostate
HCC-2998 colon = test system: HCC-2998 colon
HCT-116 colon = test system: HCT-116 colon
HOP-92 NSCLC = test system: HOP-92 NSCLC
HT29 colon = test system: HT29 colon
LOX IMVI melanoma = test system: LOX IMVI melanoma
M14 melanoma = test system: M14 melanoma
MDA-MB-231 breast = test system: MDA-MB-231 breast
MDA-MB-435 = test system: MDA-MB-435
NCI-H460 lung = test system: NCI-H460 lung
NCI-H522 lung = test system: NCI-H522 lung
OVCAR-4 ovarian = test system: OVCAR-4 ovarian
OVCAR-5 ovarian = test system: OVCAR-5 ovarian
SF-295 CNS = test system: SF-295 CNS
SK-MEL-2 melanoma = test system: SK-MEL-2 melanoma
SNB-19 CNS = test system: SNB-19 CNS
SNB-75 CNS = test system: SNB-75 CNS
SW-620 colon = test system: SW-620 colon

Compound | TGI (786-0 renal) [µM] | TGI (ACHN renal) [µM] | TGI (DU-145 prostate) [µM] | TGI (HCC-2998 colon) [µM] | TGI (HCT-116 colon) [µM] | TGI (HOP-92 NSCLC) [µM] | TGI (HT29 colon) [µM] | TGI (LOX IMVI melanoma) [µM] | TGI (M14 melanoma) [µM] | TGI (MDA-MB-231 breast) [µM] | TGI (MDA-MB-435) [µM] | TGI (NCI-H460 lung) [µM] | TGI (NCI-H522 lung) [µM] | TGI (OVCAR-4 ovarian) [µM] | TGI (OVCAR-5 ovarian) [µM] | TGI (SF-295 CNS) [µM] | TGI (SK-MEL-2 melanoma) [µM] | TGI (SNB-19 CNS) [µM] | TGI (SNB-75 CNS) [µM] | TGI (SW-620 colon) [µM]
CN(C)CCCC1c2ccccc2Oc2ccc(C(F)(F)F)cc21 (stereo not given) | 26.7 | 30.4 | 31.1 | 4.97 | 25.6 | 25.2 | 18.9 | 31.6 | 14.2 | 26 | 19.1 | 31.8 | 29.4 | 28.3 | 29.2 | 31.6 | 28.5 | 31.3 | 27.7 | 33.7
CCCCc1ccc(Nc2nc(Cl)c3ncn(COCCOC(C)=O)c3n2)cc1 | 29.5 | 32.7 | 29.7 | 24.5 | 31.7 | 5.33 | 32.2 | 27.9 | 36.7 | 30.6 | 33.1 | 32.9 | 42.9 | > 100 | 35.5 | 33.9 | 31.5 | 38.7 | 44.3 | 43.8
FC(F)(F)c1ccc(Cc2nc3cc4ccccc4cc3[nH]2)cc1 | > 100 | > 100 | > 100 | > 100 | > 100 | 47.8 | > 100 | > 100 | > 100 | > 100 | > 100 | > 100 | > 100 | > 100 | > 100 | > 100 | > 100 | > 100 | 36.1 | > 100
CCOc1ccc2nc3nc(=O)[nH]c(C)c3c(NCCCN(CC)CC)c2c1 | > 100 | > 100 | > 100 | > 100 | > 100 | > 100 | > 100 | > 100 | > 100 | > 100 | > 100 | > 100 | > 100 | > 100 | > 100 | > 100 | > 100 | > 100 | > 100 | > 100
Cc1cc(O)c2c(c1O)C(=O)c1cccc(O)c1C2=O | > 100 | > 100 | > 100 | > 100 | > 100 | > 100 | > 100 | > 100 | > 100 | > 100 | > 100 | > 100 | > 100 | > 100 | > 100 | > 100 | > 100 | > 100 | > 100 | > 100
CC1(C)CC(O)C2=C(O1)C(=O)c1ncccc1C2=O (stereo not given) | 3.62 | 11.5 | 10 | 14.6 | 5.76 | 5.44 | 35.8 | 3.4 | 4.22 | 5.92 | 3.3 | 5.89 | 3.86 | 3.15 | 3.72 | 3.35 | 6.74 | 9.2 | 2.1 | 3.56
Cc1c2ccnc(C(=O)NCCN(C)C)c2cc2c3cc(O)ccc3n(C)c12 | 3.37 | 0.397 | 0.771 | 2.11 | 6.1 | 3.59 | 3.87 | 1.26 | 1.47 | 3.35 | 1.54 | 1.39 | 1.02 | 2.22 | 6.29 | 3.37 | 1.7 | 5.16 | 2.19 | 4.36
C=CCNC(=S)N=Nc1c(O)n(CN2CCOCC2)c2ccc([N+](=O)[O-])cc12 | > 100 | > 100 | > 100 | 90.3 | > 100 | 83.3 | > 100 | > 100 | > 100 | > 100 | > 100 | > 100 | > 100 | > 100 | > 100 | > 100 | > 100 | > 100 | 88.3 | > 100
c1ccc2c(CN3CCN(Cc4c[nH]c5ccccc45)CC3)c[nH]c2c1 | 31.6 | 40.6 | 40.7 | 3.29 | 28.6 | 31.2 | 36.1 | 30.6 | 29.1 | 31.2 | 32.4 | 25.3 | 31.3 | > 100 | 36.4 | 31.1 | 31.5 | 45.9 | 30.2 | 93.9
COc1ccc(OC)c(CSc2ccc(OC)c(OC)c2)c1 | > 100 | > 100 | > 100 | > 100 | > 100 | 98.3 | > 100 | > 100 | > 100 | > 100 | > 100 | > 100 | > 100 | > 100 | > 100 | > 100 | > 100 | > 100 | > 100 | > 100
CC1(C)CC(=O)C(/C=N/C(N)=S)=C(O)C1 | > 100 | > 100 | > 100 | > 100 | > 100 | > 100 | > 100 | > 100 | > 100 | > 100 | > 100 | > 100 | > 100 | > 100 | > 100 | > 100 | > 100 | > 100 | > 100 | > 100
